Here are results for one compound from article PMC9604439, “Mutation Hotspot for Changing the Substrate Specificity of β-N-Acetylhexosaminidase: A Library of GlcNAcases” (International Journal of Molecular Sciences, 2022).

In experiment [1] the target is T1, TfHex (β-N-acetylhexosaminidase from Talaromyces flavus) (Talaromyces flavus, UniProt G5DAA0, E332H).
T1 construct: secreted via alpha-factor, pPICZαA, Pichia pastoris KM71H, cation-exchange purified; tetramer of two catalytic subunits and two non-covalently linked propeptides
T1 sequence (G5DAA0 entry or part of it E332H): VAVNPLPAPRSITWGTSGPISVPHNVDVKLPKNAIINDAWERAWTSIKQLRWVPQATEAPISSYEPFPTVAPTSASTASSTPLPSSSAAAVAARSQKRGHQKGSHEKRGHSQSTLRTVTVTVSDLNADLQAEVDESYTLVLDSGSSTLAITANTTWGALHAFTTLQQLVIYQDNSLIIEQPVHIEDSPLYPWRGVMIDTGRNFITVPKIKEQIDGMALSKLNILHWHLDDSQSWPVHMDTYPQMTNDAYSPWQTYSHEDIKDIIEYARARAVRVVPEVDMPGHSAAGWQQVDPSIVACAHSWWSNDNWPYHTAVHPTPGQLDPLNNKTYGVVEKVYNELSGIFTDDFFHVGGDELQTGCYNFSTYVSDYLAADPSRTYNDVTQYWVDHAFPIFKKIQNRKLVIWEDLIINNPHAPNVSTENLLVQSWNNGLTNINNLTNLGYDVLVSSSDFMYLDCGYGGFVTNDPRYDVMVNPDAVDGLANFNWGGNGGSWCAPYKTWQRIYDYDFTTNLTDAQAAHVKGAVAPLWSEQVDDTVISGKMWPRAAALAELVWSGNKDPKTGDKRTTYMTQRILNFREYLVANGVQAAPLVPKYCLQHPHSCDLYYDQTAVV
The experiment is described as follows: discontinuous p-nitrophenolate release assay, non-linear regression. In kind it is biochemical. The following applies: McIlvaine buffer pH 5.0, 25 °C; not measured to full saturation.

The target of experiment [2] is T2, TfHex (β-N-acetylhexosaminidase from Talaromyces flavus) (Talaromyces flavus, UniProt G5DAA0, E332K).
T2 construct: secreted via alpha-factor, pPICZαA, Pichia pastoris KM71H, cation-exchange purified; tetramer of two catalytic subunits and two non-covalently linked propeptides
T2 sequence (G5DAA0 entry or part of it E332K): as the sequence (G5DAA0 entry or part of it E332H) above, with H315K counted along it
The description is as above. In kind it is biochemical. The following applies: McIlvaine buffer pH 5.0, 25 °C; not measured to full saturation, estimate only. From the text: discontinuous p-nitrophenolate release assay, non-linear regression on TfHex (β-N-acetylhexosaminidase from Talaromyces flavus) | for Glu332Lys TfHex, only estimates of kinetic parameters are presented

Turning to `CC(=O)N[C@H]1[C@H](Oc2ccc([N+](=O)[O-])cc2)O[C@H](CO)[C@@H](O)[C@@H]1O` [pNP-GlcNAc, p-Nitrophenyl 2-acetamido-2-deoxy-β-D-glucopyranoside], the Km in experiment [1] and in experiment [2] was over 7 mM each time.

The Km is the concentration of substrate that gives half-maximal velocity.
